Assay results taken from US20250101436A1, “APTAMERS AND SMALL MOLECULE LIGANDS” (MeiraGTx UK II Limited, priority 2021, published 2025).

The compounds below were run on luciferase gene expression in HEK 293 cells in response to Comp. 004 (assay: Screen of riboswitch constructs with 12C6-1 variant aptamers (libraries N1-N5) against Comp. 004, luciferase in HEK 293 cells). Settings: library N5 variant aptamers (L5, X16-X21 randomized) of 12C6-1 in riboswitch constructs; in response to Comp. 004 treatment; HEK 293 cells.
Type: cell-based, human
Summary of the method: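 Riboswitch constructs carrying 12C6-1 aptamer variants, randomized in J2-4, J2-3/J3-3a/J3a-2/P3, L3a, J4-5/J5-4/P4 or L5 regions (libraries N1-N5), cloned into an intron-exon-intron cassette driving luciferase. Screened in HEK 293 cells with 25 µM Comp. 004; read-out is fold induction of gene expression versus parent Luci-12C6-1.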

Compared with “N5_7F10 (DNA CTGGGGAGTCCT; chemistry not given here)”, “N5_7F11 (DNA CTGGGGAGTCCT; chemistry not given here)” is lower in “Fold (induction of luciferase gene expression)” value: 572.7 fold for the first, 339.7 fold for the second.

Going from “N5_7G1 (DNA CTGGGGAGTCCT; chemistry not given here)” to “N5_7G3 (DNA CTGGGGAGTCCT; chemistry not given here)”, the “Fold (induction of luciferase gene expression)” value falls from 935.4 fold to 799.3 fold.

Going from “N5_7G6 (DNA CTGGGGAGTCCT; chemistry not given here)” to “N5_7G7 (DNA CTGGGGAGTCCT; chemistry not given here)”, the “Fold (induction of luciferase gene expression)” value rises from 902.8 fold to 952.9 fold.

Compared with “N5_7G8 (DNA CTGGGGAGTCCT; chemistry not given here)”, “N5_7G9 (DNA CTGGGGAGTCCT; chemistry not given here)” is higher in “Fold (induction of luciferase gene expression)” value: 775.6 fold for the first, 841.7 fold for the second.

Compared with “N5_7G10 (DNA CTGGGGAGTCCT; chemistry not given here)”, “N5_7G11 (DNA CTGGGGAGTCCT; chemistry not given here)” is higher in “Fold (induction of luciferase gene expression)” value: 530.8 fold for the first, 1533.8 fold for the second.

Compared with “N5_7G12 (DNA CTGGGGAGTCCT; chemistry not given here)”, “N5_7H1 (DNA CTGGGGAGTCCT; chemistry not given here)” is lower in “Fold (induction of luciferase gene expression)” value: 894.6 fold for the first, 158.5 fold for the second.

Compared with “N5_7H3 (DNA CTGGGGAGTCCT; chemistry not given here)”, “N5_7H4 (DNA CTGGGGAGTCCT; chemistry not given here)” is higher in “Fold (induction of luciferase gene expression)” value: 360.5 fold for the first, 560.0 fold for the second.

Going from “N5_7H5 (DNA CTGGGGAGTCCT; chemistry not given here)” to “N5_7H9 (DNA CTGGGGAGTCCT; chemistry not given here)”, the “Fold (induction of luciferase gene expression)” value rises from 848.4 fold to 860.0 fold.

Going from “N5_7H10 (DNA CTGGGGAGTCCT; chemistry not given here)” to “N5_7H11 (DNA CTGGGGAGTCCT; chemistry not given here)”, the “Fold (induction of luciferase gene expression)” value rises from 713.9 fold to 1105.2 fold.

Compared with “N5_7H12 (DNA CTGGGGAGTCCT; chemistry not given here)”, “N5_8A9 (DNA CTGGGGAGTCCT; chemistry not given here)” is lower in “Fold (induction of luciferase gene expression)” value: 1194.5 fold for the first, 1090.4 fold for the second.

Going from “N5_8C7 (DNA CTGGGGAGTCCT; chemistry not given here)” to “N5_8D1 (DNA CTGGGGAGTCCT; chemistry not given here)”, the “Fold (induction of luciferase gene expression)” value rises from 817.6 fold to 1139.6 fold.

Compared with “N5_8F1 (DNA CTGGGGAGTCCT; chemistry not given here)”, “N5_8F3 (DNA CTGGGGAGTCCT; chemistry not given here)” is lower in “Fold (induction of luciferase gene expression)” value: 951.8 fold for the first, 862.0 fold for the second.

First: N5_8F11 (DNA CTGGGGAGTCCT; chemistry not given here)
Second: N5_8G9 (DNA CTGGGGAGTCCT; chemistry not given here)
The “Fold (induction of luciferase gene expression)” value of the first is higher: 1282.8 fold for the first, 1066.5 fold for the second.

Going from “N5_8H1 (DNA CTGGGGAGTCCT; chemistry not given here)” to “N5_8H7 (DNA CTGGGGAGTCCT; chemistry not given here)”, the “Fold (induction of luciferase gene expression)” value rises from 1191.9 fold to 1218.5 fold.

Compared with “N5_9B8 (DNA CTGGGGAGTCCT; chemistry not given here)”, “N5_9C2 (DNA CTGGGGAGTCCT; chemistry not given here)” is higher in “Fold (induction of luciferase gene expression)” value: 792.8 fold for the first, 1027.6 fold for the second.

Compared with “N5_9C12 (DNA CTGGGGAGTCCT; chemistry not given here)”, “N5_9E6 (DNA CTGGGGAGTCCT; chemistry not given here)” is lower in “Fold (induction of luciferase gene expression)” value: 1094.3 fold for the first, 1020.7 fold for the second.

Compared with “N5_9E12 (DNA CTGGGGAGTCCT; chemistry not given here)”, “N5_9F1 (DNA CTGGGGAGTCCT; chemistry not given here)” is lower in “Fold (induction of luciferase gene expression)” value: 1458.4 fold for the first, 875.6 fold for the second.

Going from “N5_9G5 (DNA CTGGGGAGTCCT; chemistry not given here)” to “N5_9G7 (DNA CTGGGGAGTCCT; chemistry not given here)”, the “Fold (induction of luciferase gene expression)” value rises from 725.3 fold to 937.7 fold.

Going from “N5_9H1 (DNA CTGGGGAGTCCT; chemistry not given here)” to “N5_11B9 (CTGGGGAGTCCT; chemistry not given here)”, the “Fold (induction of luciferase gene expression)” value rises from 1494.7 fold to 1595.4 fold.

First: N5_11D10 (CTGGGGAGTCCT; chemistry not given here)
Second: N5_11F4 (CTGGGGAGTCCT; chemistry not given here)
The “Fold (induction of luciferase gene expression)” value of the first is higher: 1719.3 fold for the first, 1230.1 fold for the second.

First: N5_11G4 (CTGGGGAGTCCT; chemistry not given here)
Second: N5_11G11 (CTGGGGAGTCCT; chemistry not given here)
The “Fold (induction of luciferase gene expression)” value of the first is lower: 931.9 fold for the first, 1186.4 fold for the second.

Going from “N5_12E5 (CTGGGGAGTCCT; chemistry not given here)” to “N5_12F4 (CTGGGGAGTCCT; chemistry not given here)”, the “Fold (induction of luciferase gene expression)” value rises from 1898.6 fold to 2096.2 fold.

Compared with “N5_12F11 (CTGGGGAGTCCT; chemistry not given here)”, “N5_12F12 (CTGGGGAGTCCT; chemistry not given here)” is higher in “Fold (induction of luciferase gene expression)” value: 926.7 fold for the first, 1169.8 fold for the second.

Compared with “N5_12G2 (CTGGGGAGTCCT; chemistry not given here)”, “N5_12G6 (CTGGGGAGTCCT; chemistry not given here)” is higher in “Fold (induction of luciferase gene expression)” value: 1074.1 fold for the first, 2750.8 fold for the second.

Going from “N5_12G11 (CTGGGGAGTCCT; chemistry not given here)” to “N5_13C10 (CTGGGGAGTCCT; chemistry not given here)”, the “Fold (induction of luciferase gene expression)” value rises from 1043.8 fold to 1144.6 fold.

First: N5_13D1 (CTGGGGAGTCCT; chemistry not given here)
Second: N5_13D5 (CTGGGGAGTCCT; chemistry not given here)
The “Fold (induction of luciferase gene expression)” value of the first is lower: 722.9 fold for the first, 749.4 fold for the second.

Compared with “N5_13E8 (CTGGGGAGTCCT; chemistry not given here)”, “N5_13G5 (CTGGGGAGTCCT; chemistry not given here)” is lower in “Fold (induction of luciferase gene expression)” value: 2096.6 fold for the first, 1198.5 fold for the second.

First: N5_13G10 (CTGGGGAGTCCT; chemistry not given here)
Second: N5_13G12 (CTGGGGAGTCCT; chemistry not given here)
The “Fold (induction of luciferase gene expression)” value of the first is higher: 1604.0 fold for the first, 1199.4 fold for the second.

Going from “N5_13H3 (CTGGGGAGTCCT; chemistry not given here)” to “N5_14B9 (CTGGGGAGTCCT; chemistry not given here)”, the “Fold (induction of luciferase gene expression)” value falls from 1288.5 fold to 897.5 fold.

Going from “N5_14B10 (CTGGGGAGTCCT; chemistry not given here)” to “N5_14D10 (CTGGGGAGTCCT; chemistry not given here)”, the “Fold (induction of luciferase gene expression)” value falls from 1133.0 fold to 950.5 fold.

Compared with “N5_14G11 (CTGGGGAGTCCT; chemistry not given here)”, “N5_14H11 (CTGGGGAGTCCT; chemistry not given here)” is lower in “Fold (induction of luciferase gene expression)” value: 1775.3 fold for the first, 918.4 fold for the second.

These compounds were tested on N5-12G6 riboswitch (assay: Firefly luciferase assay, N5-12G6 riboswitch in HEK293 cells). Settings: 12G6 riboswitch, HEK293.
Procedure: Transfection: 3.5×10^4 human embryonic kidney (HEK) 293 cells were plated in a 96-well flat bottom plate the day before transfection. Plasmid DNA (500 ng) was added to a tube or a 96-well U-bottom plate. Separately, TransIT-293 reagent (Mirus; 1.4 L) was added to 50 μL Optimum I media (Life Technologies) and allowed to sit for 5 minutes at room temperature (RT). Then, 50 μL of this diluted transfection reagent was added to the DNA, mixed, and incubated at RT for 20 min. Finally, 7 μL of this solution was added to a well of cells in the 96-well plate. Four hours after transfection, medium containing transfection solution was replaced by medium with either TPP or fursultiamine as aptamer ligands.
Firefly luciferase assay of cultured cells: Twenty-four hours after media change, plates were removed from the incubator, and equilibrated to RT for several minutes on a lab bench, then aspirated. Glo-lysis buffer (Promega, 100 μL, RT) was added, and the plates allowed to remain at RT for at least 5 minutes. Then, the well contents were mixed by 50 μL trituration, and 20 μL of each sample was mixed with 20 μL of bright-glo reagent (Promega) that had been diluted to 10% in glo-lysis buffer. 96 wells were spaced on an opaque white 384-well plate. Following a 5 min incubation at RT, luminescence was measured using a Tecan machine with 500 ms read time. The luciferase activity was expressed as mean arbitrary light units (ALU)±S.D., and fold induction was calculated as the quotient of the luciferase activity obtained from cells with TPP or analog compound treatment divided by the luciferase activity obtained from cells without TPP or analog compound treatment.

`Fc1cc(CNc2cnccc2N2CCNCC2)cc2nccnc12` [compound 012, N-((8-Fluoroquinoxalin-6-yl)methyl)-4-(piperazin-1-yl)pyridin-3-amine] was tested, and the “regulation of luciferase expression (FIG. 4e)” value (“regulation” for short) was “regulate expression in a dose-dependent fashion”.
For `Clc1cc2nccnc2cc1CNc1cnccc1N1CCNCC1` [compound 013, N-((7-Chloroquinoxalin-6-yl)methyl)-4-(piperazin-1-yl)pyridin-3-amine], the “regulation” value was “regulate expression in a dose-dependent fashion”.
For `c1cc(N2CCCNCC2)c(NCc2ccc3nccnc3c2)cn1` [compound 014, 4-(1,4-Diazepan-1-yl)-N-(quinoxalin-6-ylmethyl)pyridin-3-amine], the “regulation” value was “regulate expression in a dose-dependent fashion”.

Same assay, conditions: Homo sapiens, HEK293, read-out: Fold induction 25 μM (HEK), 12G6 riboswitch, luciferase, HEK293, 25 μM

Compared with `Fc1cc(CNc2cnccc2N2CCNCC2)cc2nccnc12` [compound 012, N-((8-Fluoroquinoxalin-6-yl)methyl)-4-(piperazin-1-yl)pyridin-3-amine], `Clc1cc2nccnc2cc1CNc1cnccc1N1CCNCC1` [compound 013, N-((7-Chloroquinoxalin-6-yl)methyl)-4-(piperazin-1-yl)pyridin-3-amine] is lower in fold induction at 25 µM: 383 for the first, 314 for the second.

With `c1cc(N2CCCNCC2)c(NCc2ccc3nccnc3c2)cn1` [compound 014, 4-(1,4-Diazepan-1-yl)-N-(quinoxalin-6-ylmethyl)pyridin-3-amine] the fold induction at 25 µM was 251.
